According to patent publication US20220071932A1, “Compositions and Methods Against Stress-Induced Affective Disorders and Their Associated Symptoms” (The Trustees of Columbia University in the City of New York, priority 2019, published 2022):

Experiments:
Format in all cases: in vivo
[1] = system: 129S6/SvEv mice; test: Contextual fear conditioning (CFC), 3-shock; freezing; conditions: for p, Freezing (%), CFC Re-exposure 2, Saline vs. drug: drug 5 min after re-exposure 1; for Behavior: Fear: dose 30 mg/kg
Protocol: A 3-shock CFC paradigm was administered as previously described (45, 46). CFC was conducted in chambers obtained from Med Associates (St. Albans, Vt.), with internal dimensions of approximately 20 cm wide×16 cm deep×20.5 cm high. The chambers had metal walls on each side, clear plastic front and back walls and ceilings, and stainless-steel bars on the floor. A house light (CM1820 bulb, 28v, 100 mA) mounted directly above the chamber provided illumination. Each chamber was located inside a larger, insulated, plastic cabinet that provided protection from outside light and noise. Each cabinet contained a ventilation fan that was operated during the sessions. A paper towel dabbed with lemon solution was placed underneath the chamber floor. Mice were held outside the experimental room in their home cages prior to testing and transported to the conditioning apparatus individually in standard mouse cages Chambers were cleaned with 70% EtOH between each set of mice. Mice were placed into the conditioning chamber and received shocks at 180 s, 240 s, and 300 s (2 s duration, 0.75 mA). Fifteen seconds after the last shock, mice were removed from the chamber. Overall, the training session lasted 317 s. […] All sessions were scored for freezing using FreezeFrame4.

[2] = system: 129S6/SvEv mice; test: Marble burying (MB); conditions: 30 mg/kg; drug 5 minutes after stress; FIG. 2K
Protocol: (§1) The MB assay was conducted in a clean cage (10.5 in×5.5 in) containing soft pliable Beta Chip bedding (Northeastern Products Corp, Warrensburg, N.Y.). The cage contained 16 marbles set up in 4 rows of 4 across. Mice were given 30 minutes to explore and bury. At the end of the assay, the percentage of marbles buried was calculated.

[3] = system: 129S6/SvEv mice; test: Elevated plus maze (EPM); conditions: (R,S)-ketamine 30 mg/kg, FENM 10, 20 or 30 mg/kg, vs saline
Protocol: (§2) Testing was performed as previously described (47). Briefly, the maze is a plus-cross-shaped apparatus consisting of four arms, two open and two enclosed by walls, linked by a central platform at a height of 50 cm from the floor. Mice were individually placed in the center of the maze facing an open arm and were allowed to explore the maze for 5 min. The time spent in and the number of entries into the open arms was used as an anxiety index. Videos were scored using ANY-maze behavior tracking software (Stoelting, Wood Dale, Ill.).

[4] = system: 129S6/SvEv mice; test: Anxiety-like behavior, summary of anxiety tests (OF, MB, EPM); conditions: (R,S)-ketamine 30 mg/kg, FENM 20 mg/kg, vs saline
Protocol: as §2
The OF assay was administered as previously described (47). Briefly, motor activity was quantified in 4 Plexiglas open field boxes 43×43 cm^2 (MED Associates, Georgia, Vt.). Two sets of 16 pulse-modulated infrared photobeams on opposite walls 2.5-cm apart recorded x-y ambulatory movements. Activity chambers were computer interfaced for data sampling at 100-ms resolution. The computer defined grid lines that dividing center and surround regions, with the center square consisting of four lines 11 cm from the wall.
as §1

[5] = 30 mg/kg, drug 1 week before stress, FIG. 1C
[6] = 30 mg/kg, drug 5 minutes after stress, FIG. 2C
[7] = 5 min prior to CFC, (R,S)-ketamine 30 mg/kg, FENM 20 mg/kg, vs saline
[8] = Saline vs. (R,S)-ketamine (30 mg/kg), FIG. 8D
[9] = Saline vs. (R,S)-ketamine (30 mg/kg), FIG. 8F
[10] = 5 minutes after CFC, re-exposure 5 days after training

Which “p, Fisher's LSD Saline vs. drug, CFC Re-exposure Freezing Min 1 (%)” value [1, 5] does the source give for `CNC1(c2ccccc2Cl)CCCCC1=O` (racemic) [(R,S)-ketamine, reference compound] here?
The value was 0.0101.

And the “p, Fisher's LSD Saline vs. drug, CFC Re-exposure Freezing Min 2 (%)” value [1, 5]?
The value was 0.0012.

And the “p, Fisher's LSD Saline vs. drug, CFC Re-exposure Freezing Min 3 (%)” value [1, 5]?
Its value is 0.0320.

And the “p, Fisher's LSD Saline vs. drug, CFC Re-exposure Freezing Min 4 (%)” value [1, 5]?
Its value is 0.0592.

What about the “p, Fisher's LSD Saline vs. drug, CFC Re-exposure Freezing Min 5 (%)” value [1, 5] of the same compound?
Its value is 0.4016.

And the “p, Fisher's LSD Saline vs. drug, CFC Re-exposure Freezing (%)” value ([1]; 30 mg/kg, drug 1 week before stress, after ANOVA, FIG. 1D)?
The value was 0.0086.

What about the “p, Fisher's LSD Saline vs. drug, CFC Re-exposure Freezing (%)” value ([1]; 30 mg/kg, drug 1 week before stress, after RMANOVA, FIG. 1C) of the same compound?
The value was 0.0086.

What about the “p, Fisher's PLSD Saline vs. drug, CFC Re-exposure Freezing Min 1 (%)” value [1, 6] of the same compound?
The value was 0.6701.

What about the “p, Fisher's PLSD Saline vs. drug, CFC Re-exposure Freezing Min 2 (%)” value [1, 6] of the same compound?
Its value is 0.0587.

What about the “p, Fisher's PLSD Saline vs. drug, CFC Re-exposure Freezing Min 3 (%)” value [1, 6] of the same compound?
The value was 0.1358.

And the “p, Fisher's PLSD Saline vs. drug, CFC Re-exposure Freezing Min 4 (%)” value [1, 6]?
Its value is 0.5515.

What about the “p, Fisher's PLSD Saline vs. drug, CFC Re-exposure Freezing Min 5 (%)” value [1, 6] of the same compound?
Its value is 0.1641.

And the “p, Fisher's PLSD Saline vs. drug, CFC Re-exposure Freezing (%)” value ([1]; 30 mg/kg, drug 5 minutes after stress, after RMANOVA, FIG. 2C)?
Its value is 0.4342.

What about the “fear expression during CFC re-exposure” value ([1]; 1 week prior to CFC, (R,S)-ketamine 30 mg/kg, FENM 20 and 30 mg/kg, vs saline) of the same compound?
Its value is “decreased fear expression”.

What about the “fear expression during re-exposure 2” value ([1]; 5 min after context re-exposure 1 (24 h before re-exposure 2), (R,S)-ketamine 30 mg/kg, FENM 20 mg/kg, vs saline) of the same compound?
Its value is “but not (R,S)-ketamine, significantly decreased”.

What about the “fear expression during CFC re-exposure 1” value [1, 7] of the same compound?
The value was “significantly decreased fear expression”.

And the “fear expression during CFC re-exposure 2” value [1, 7]?
The value was “significantly decreased fear expression”.

What about the “freezing during CFC training” value [1, 7] of the same compound?
The value was “significantly increased freezing”.

What about the “p, Freezing (%), CFC Re-exposure 2, Saline vs. drug” value ([1]; Fisher's LSD after ANOVA, FENM 20 mg/kg, (R,S)-ketamine 30 mg/kg, FIG. 4G) of the same compound?
Its value is 0.9122.

And the “p, Freezing (%), CFC Re-exposure 2, Saline vs. drug” value ([1]; Fisher's LSD after RMANOVA, FENM 20 mg/kg, ketamine 30 mg/kg, FIG. 4F)?
Its value is 0.9122.

And the “p, Freezing (%), CFC Training, Saline vs. drug” value ([1]; Fisher's LSD after RMANOVA, drug 5 min before CFC, (R,S)-ketamine 30 mg/kg, FENM dose lies beyond the rows shown, FIG. 8B)?
The value was 0.0024.

What about the “Behavior: Fear” value ([1]; Prophylactic (5 min before stress)) of the same compound?
Its value is “↓”.

And the “Behavior: Fear” value ([1]; Prophylactic (7 days before stress))?
The value was “↓”.

And the “CFC Training, Average Freezing, p (Fisher's LSD)” value ([1]; Saline vs. (R,S)-ketamine (30 mg/kg), FIG. 8C)?
The value was 0.0024.

And the “CFC Re-exposure 1, Freezing Min 1 (%), p (Fisher's LSD)” value [1, 8]?
Its value is 0.0066.

What about the “CFC Re-exposure 1, Freezing Min 2 (%), p (Fisher's LSD)” value [1, 8] of the same compound?
Its value is <0.0001.

And the “CFC Re-exposure 1, Freezing Min 3 (%), p (Fisher's LSD)” value [1, 8]?
The value was <0.0001.

And the “CFC Re-exposure 1, Freezing Min 4 (%), p (Fisher's LSD)” value [1, 8]?
Its value is <0.0001.

What about the “CFC Re-exposure 1, Freezing Min 5 (%), p (Fisher's LSD)” value [1, 8] of the same compound?
The value was <0.0001.

What about the “CFC Re-exposure 2, Freezing Min 1 (%), p (Fisher's LSD)” value [1, 9] of the same compound?
The value was 0.4378.

What about the “CFC Re-exposure 2, Freezing Min 2 (%), p (Fisher's LSD)” value [1, 9] of the same compound?
Its value is 0.0304.

What about the “CFC Re-exposure 2, Freezing Min 4 (%), p (Fisher's LSD)” value [1, 9] of the same compound?
The value was <0.0001.

And the “CFC Re-exposure 2, Freezing Min 5 (%), p (Fisher's LSD)” value [1, 9]?
Its value is <0.0001.

And the “CFC Re-exposure 1, Freezing (%), p (Fisher's LSD)” value ([1]; Saline vs. (R,S)-ketamine (30 mg/kg), after ANOVA, FIG. 8E)?
Its value is <0.0001.

And the “CFC Re-exposure 2, Freezing (%), p (Fisher's LSD)” value ([1]; Saline vs. (R,S)-ketamine (30 mg/kg), after ANOVA, FIG. 8G)?
Its value is <0.0001.

What about the “CFC Re-exposure 1, Freezing (%), p (Fisher's LSD)” value ([1]; Saline vs. (R,S)-ketamine (30 mg/kg), after RMANOVA, FIG. 8D) of the same compound?
Its value is <0.0001.

What about the “CFC Re-exposure 2, Freezing (%), p (Fisher's LSD)” value ([1]; Saline vs. (R,S)-ketamine (30 mg/kg), after RMANOVA, FIG. 8F) of the same compound?
Its value is <0.0001.

And the “CFC Re-exposure 2, Freezing Min 3 (%), p (Fisher's LSD)” value ([1]; Saline vs. ketamine (30 mg/kg), FIG. 8F)?
The value was 0.0033.

And the “behavior during CFC training” value ([1]; one week prior to 3-shock CFC (c-fos / Western blot cohort), (R,S)-ketamine 30 mg/kg, FENM 20 mg/kg, vs saline)?
The value was “did not alter behavior”.

What about the freezing upon re-exposure ([1]; one week prior to 3-shock CFC, re-exposed five days later, (R,S)-ketamine 30 mg/kg, FENM 20 mg/kg, vs saline) of the same compound?
Its freezing upon re-exposure is “significantly reduced freezing”.

And the “p, Fisher's PLSD Saline vs. drug, MB Marbles Buried (no.)” value [2]?
The value was 0.7292.

And the “distance travelled in the EPM” value ([3]; 1 week prior to CFC)?
Its value is “did not alter”.

What about the “time spent in the open arms and center of the EPM” value ([3]; 1 week prior to CFC) of the same compound?
Its value is “did not alter”.

What about the “distance travelled in the EPM” value [3, 10] of the same compound?
Its value is “did not alter”.

And the “time spent in the open arms and center of the EPM” value [3, 10]?
Its value is “did not alter”.

And the “behavior in all anxiety tests, with the exception of the time spent in the center of the OF” value ([4]; 5 min after context re-exposure 1)?
Its value is “did not alter behavior”.

And the “behavior in all anxiety tests” value ([4]; 5 minutes prior to context re-exposure 1 (24 h after CFC))?
Its value is “did not alter behavior”.
